Data from ChEMBL document CHEMBL4145553, “Design, synthesis, and biological evaluation of novel amide and hydrazide based thioether analogs targeting Histone deacteylase (HDAC) enzymes” (Eur J Med Chem, 2018).

Key:
M14 = test: Growth of human M14 cells at 10 uM incubated for 48 hrs by sulforhodamine B assay relative to control; conditions: M14, 48 h
NCI-H460 = test: Growth inhibition of human NCI-H460 cells assessed as cell growth at 10^-8 M incubated for 48 hrs by sulforhodamine B assay relative to control; assay type: functional; conditions: NCI-H460, 48 h, read-out: Activity
TK-10 = test: Growth inhibition of human TK10 cells at 10 uM incubated for 48 hrs by sulforhodamine B assay relative to control; assay type: functional; conditions: TK-10, 48 h, values are per cent of control
HT-29 = test: Growth of human HT-29 cells at 10 uM incubated for 48 hrs by sulforhodamine B assay relative to control; conditions: HT-29, 48 h
MOLT-4 = test: Growth of human MOLT4 cells at 10 uM incubated for 48 hrs by sulforhodamine B assay relative to control; conditions: MOLT-4, 48 h
COLO 205 = test: Growth of human COLO205 cells at 10 uM incubated for 48 hrs by sulforhodamine B assay relative to control; conditions: COLO 205, 48 h
OVCAR-5 = test: Growth of human OVCAR5 cells at 10 uM incubated for 48 hrs by sulforhodamine B assay relative to control; conditions: OVCAR-5, 48 h
UO-31 = test: Growth inhibition of human UO31 cells at 10 uM incubated for 48 hrs by sulforhodamine B assay relative to control; assay type: functional; conditions: UO-31, 48 h, values are per cent of control
NCI-H23 = test: Growth inhibition of human NCI-H23 cells at 10 uM incubated for 48 hrs by sulforhodamine B assay relative to control; assay type: functional; conditions: NCI-H23, 48 h, values are per cent of control
A549 = test: Growth of human A549/ATCC cells at 10 uM incubated for 48 hrs by sulforhodamine B assay relative to control; conditions: A549, 48 h
KM12 = test: Growth inhibition of human KM12 cells assessed as cell growth at 10^-8 M incubated for 48 hrs by sulforhodamine B assay relative to control; assay type: functional; conditions: KM12, 48 h, read-out: Activity
SK-OV-3 = test: Growth inhibition of human SKOV3 cells assessed as cell growth at 10^-7 M incubated for 48 hrs by sulforhodamine B assay relative to control; assay type: functional; conditions: SK-OV-3, 48 h, read-out: Activity
DU-145 = test: Growth inhibition of human DU145 cells at 10 uM incubated for 48 hrs by sulforhodamine B assay relative to control; assay type: functional; conditions: DU-145, 48 h, values are per cent of control
Hs-578T = test: Growth inhibition of human Hs 578T cells incubated for 48 hrs by sulforhodamine B assay; assay type: functional
NCI-H522 = test: Growth of human NCI-H522 cells at 10 uM incubated for 48 hrs by sulforhodamine B assay relative to control; conditions: NCI-H522, 48 h
HOP-92 = test: Growth inhibition of human HOP92 cells at 10 uM incubated for 48 hrs by sulforhodamine B assay relative to control; assay type: functional; conditions: HOP-92, 48 h, values are per cent of control
SW-620 = test: Growth of human SW620 cells at 10 uM incubated for 48 hrs by sulforhodamine B assay relative to control; conditions: SW-620, 48 h
IGROV-1 = test: Growth of human IGROV1 cells at 10 uM incubated for 48 hrs by sulforhodamine B assay relative to control; conditions: IGROV-1, 48 h
SN12C = test: Growth inhibition of human SN12C cells at 10 uM incubated for 48 hrs by sulforhodamine B assay relative to control; assay type: functional; conditions: values are per cent of control
K562 = test: Growth of human K562 cells at 10 uM incubated for 48 hrs by sulforhodamine B assay relative to control; conditions: K562, 48 h
SF-268 = test: Growth of human SF268 cells at 10 uM incubated for 48 hrs by sulforhodamine B assay relative to control; conditions: SF-268, 48 h
MDA-MB-435 = test: Growth inhibition of human MDA-MB-435 cells assessed as cell growth at 10^-6 M incubated for 48 hrs by sulforhodamine B assay relative to control; assay type: functional; conditions: MDA-MB-435, 48 h, read-out: Activity
SR = test: Growth of human SR cells at 10 uM incubated for 48 hrs by sulforhodamine B assay relative to control
SF-295 = test: Growth of human SF295 cells at 10 uM incubated for 48 hrs by sulforhodamine B assay relative to control; conditions: SF-295, 48 h
ACHN = test: Growth inhibition of human ACHN cells at 10 uM incubated for 48 hrs by sulforhodamine B assay relative to control; assay type: functional; conditions: values are per cent of control
BT-549 = test: Growth inhibition of human BT549 cells at 10 uM incubated for 48 hrs by sulforhodamine B assay relative to control; assay type: functional; conditions: BT-549, 48 h, values are per cent of control
MDA-MB-468 = test: Growth inhibition of human MDA-MB-468 cells at 10 uM incubated for 48 hrs by sulforhodamine B assay relative to control; assay type: functional; conditions: MDA-MB-468, 48 h, values are per cent of control
HCT-15 = test: Growth of human HCT15 cells at 10 uM incubated for 48 hrs by sulforhodamine B assay relative to control; conditions: HCT-15, 48 h
UACC-62 = test: Growth inhibition of human UACC62 cells assessed as cell growth at 10^-4 M incubated for 48 hrs by sulforhodamine B assay relative to control; assay type: functional; conditions: UACC-62, 48 h, read-out: Activity
SK-MEL-28 = test: Growth of human SK-MEL-28 cells at 10 uM incubated for 48 hrs by sulforhodamine B assay relative to control; conditions: SK-MEL-28, 48 h
OVCAR-3 = test: Growth of human OVCAR3 cells at 10 uM incubated for 48 hrs by sulforhodamine B assay relative to control; conditions: OVCAR-3, 48 h
MDA-MB-231 = test: Growth inhibition of human MDA-MB-231 cells at 10 uM incubated for 48 hrs by sulforhodamine B assay relative to control; assay type: functional; conditions: MDA-MB-231, 48 h, values are per cent of control
[1] = read-out: LC50 (the source's name)
[2] = read-out: pLC50 (the source's name) (converted)

CCS/C(Nc1ccccc1)=C(\C#N)C(=O)N/N=C\c1ccc(Cl)cc1Cl was tested, and the growth, % of control at 10 µM (M14) was 21%, the growth at 0.01 µM (NCI-H460) was 100% and the growth, % of control at 10 µM (TK-10) was 56.7%. For the same compound, the growth, % of control at 10 µM (HT-29) was 9.53%, the growth, % of control at 10 µM (MOLT-4) was 18.3% and the growth, % of control at 10 µM (COLO 205) was 28.4%. It also gave a growth, % of control at 10 µM (OVCAR-5) of 72.5%, a growth, % of control at 10 µM (UO-31) of 41.9% and a growth, % of control at 10 µM (NCI-H23) of 41.3%. The growth, % of control at 10 µM (A549) was 38.3%, the growth at 0.01 µM (KM12) was 101% and the growth at 0.1 µM (SK-OV-3) was 86%. For the same compound, the growth, % of control at 10 µM (DU-145) was 20%, the GI50 (Hs-578T; read-out: GI50) was 2.74 µM and the CC50 (Hs-578T; [1]) was over 100 µM. For the same compound, the TGI (Hs-578T; read-out: TGI) was 98.7 µM, the GI50 (Hs-578T; read-out: pGI50 (converted)) was 2.75 µM and the CC50 (Hs-578T; [2]) was over 100 µM. It also gave a TGI (Hs-578T; read-out: pTGI (converted)) of 97.7 µM, a growth, % of control at 10 µM (NCI-H522) of 1.02% and a growth, % of control at 10 µM (HOP-92) of 29.2%. It also gave a growth, % of control at 10 µM (SW-620) of 18.6%, a growth, % of control at 10 µM (IGROV-1) of 49.1% and a growth, % of control at 10 µM (SN12C) of 34.5%. It also gave a growth, % of control at 10 µM (K562) of 7.35%, a growth, % of control at 10 µM (SF-268) of 34% and a growth at 1 µM (MDA-MB-435) of 28%. For the same compound, the growth, % of control at 10 µM (SR) was 19.5%, the growth, % of control at 10 µM (SF-295) was 17% and the growth, % of control at 10 µM (ACHN) was 38.2%. For the same compound, the growth, % of control at 10 µM (BT-549) was 45.4%, the growth, % of control at 10 µM (MDA-MB-468) was 19.6% and the growth, % of control at 10 µM (HCT-15) was 19.9%. It also gave a growth at 100 µM (UACC-62) of 12%, a growth, % of control at 10 µM (SK-MEL-28) of 60.5% and a growth, % of control at 10 µM (OVCAR-3) of 1.46%. The growth, % of control at 10 µM (MDA-MB-231) was 39%.

CCS/C(Nc1ccccc1)=C(\C#N)C(=O)Nc1ccc(OC)cc1 was tested, and the growth, % of control at 10 µM (M14) was 15.2%, the growth at 0.01 µM (NCI-H460) was 105% and the growth, % of control at 10 µM (TK-10) was 47.6%. The growth, % of control at 10 µM (HT-29) was 6.46%, the growth, % of control at 10 µM (MOLT-4) was 10.1% and the growth, % of control at 10 µM (COLO 205) was 17.5%. It also gave a growth, % of control at 10 µM (OVCAR-5) of 63.1%, a growth, % of control at 10 µM (UO-31) of 50% and a growth, % of control at 10 µM (NCI-H23) of 48.3%. It also gave a growth, % of control at 10 µM (A549) of 34.6%, a growth at 0.01 µM (KM12) of 100% and a growth at 0.1 µM (SK-OV-3) of 88%. For the same compound, the growth, % of control at 10 µM (DU-145) was 33.8%, the GI50 (Hs-578T; read-out: GI50) was 4.07 µM and the CC50 (Hs-578T; [1]) was over 100 µM. It also gave a TGI (Hs-578T; read-out: TGI) of over 100 µM, a GI50 (Hs-578T; read-out: pGI50 (converted)) of 4.07 µM and a CC50 (Hs-578T; [2]) of over 100 µM. It also gave a TGI (Hs-578T; read-out: pTGI (converted)) of over 100 µM, a growth, % of control at 10 µM (NCI-H522) of 0.63% and a growth, % of control at 10 µM (HOP-92) of 44.5%. It also gave a growth, % of control at 10 µM (SW-620) of 17.9%, a growth, % of control at 10 µM (IGROV-1) of 55.7% and a growth, % of control at 10 µM (SN12C) of 37.8%. For the same compound, the growth, % of control at 10 µM (K562) was 7.34%, the growth, % of control at 10 µM (SF-268) was 39.1% and the growth at 1 µM (MDA-MB-435) was 19%. For the same compound, the growth, % of control at 10 µM (SR) was 6.62%, the growth, % of control at 10 µM (SF-295) was 32.6% and the growth, % of control at 10 µM (ACHN) was 51.9%. It also gave a growth, % of control at 10 µM (BT-549) of 40.5%, a growth, % of control at 10 µM (MDA-MB-468) of -2.63% and a growth, % of control at 10 µM (HCT-15) of 16.9%. It also gave a growth at 100 µM (UACC-62) of 6%, a growth, % of control at 10 µM (SK-MEL-28) of 58.9% and a growth, % of control at 10 µM (OVCAR-3) of -12.1%. For the same compound, the growth, % of control at 10 µM (MDA-MB-231) was 44.5%.
